The target of assay [1] is glucosylceramide synthase (GCS) (Homo sapiens (Human), UniProt Q16739). Put plainly: Evaluation of inhibitory activities against GCS (A549 cell lysate, NBD C6-ceramide, HPLC). The class given is biochemical. The essentials:
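GCS activity in A549 cell lysate (50 mM HEPES, pH 7.3) with NBD C6-ceramide, reacted 90 min at 37 °C. Lipids were chloroform/methanol-extracted and separated by normal-phase HPLC with fluorescence detection (ex 470/em 530 nm). GlcCer fraction of peak area was normalized between DMSO and ibiglustat, and IC50 obtained by curve fitting.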

For assay [2], the system named is GM1 production in Jurkat cells. As to the kind of experiment: cells. The class given is cell-based.
[3] abbreviates: % GCS activity, A549 cell lysate, 37° C. for 90 minutes, read-out: IC50.

Our source for the IC50 values is US20240262819A1, “NOVEL COMPOUNDS HAVING INHIBITORY ACTIVITY AGAINST GLUCOSYLCERAMIDE SYNTHASE OR PHARMACEUTICALLY ACCEPTABLE SALT THEREOF, PROCESSES FOR PREPARING THE SAME, AND PHARMACEUTICAL COMPOSITIONS COMPRISING THE SAME” (YUHAN CORPORATION, priority 2021, published 2024).

Where two headings read alike, the source gives them in different places.

Chain of glucosylceramide synthase (GCS) (Q16739 whole entry): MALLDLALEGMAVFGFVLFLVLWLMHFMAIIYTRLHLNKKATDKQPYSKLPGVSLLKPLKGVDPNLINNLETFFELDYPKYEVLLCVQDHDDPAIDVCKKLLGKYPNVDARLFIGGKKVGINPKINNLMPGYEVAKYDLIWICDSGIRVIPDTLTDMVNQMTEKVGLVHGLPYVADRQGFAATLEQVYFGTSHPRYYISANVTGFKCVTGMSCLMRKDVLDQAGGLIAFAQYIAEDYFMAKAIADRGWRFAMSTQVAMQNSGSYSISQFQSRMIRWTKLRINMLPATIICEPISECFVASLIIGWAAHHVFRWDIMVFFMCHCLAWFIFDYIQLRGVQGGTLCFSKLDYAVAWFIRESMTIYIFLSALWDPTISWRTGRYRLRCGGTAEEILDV

A word on the IC50: it is the concentration that gives 50% inhibition. In the case of `CCOc1ccc(-c2cc3c(cc2C)[C@H](NC(=O)O[C@@H]2CN4CCC2CC4)C(C)(C)C3)cc1` [Example 120, (S)-quinuclidin-3-yl((R)-5-(4-ethoxyphenyl)-2,2,6-trimethyl-2,3-dihydro-1H-inden-1-yl)carbamate], the IC50 in assay [1] worked out at 0.31 nM; in assay [2] (Homo sapiens, Jurkat, 72 h), 7.66 nM.

For `CCCOc1ccc(-c2cc3c(cc2F)[C@H](NC(=O)O[C@@H]2CN4CCC2CC4)C(C)(C)C3)cc1C` [Example 106, (S)-quinuclidin-3-yl((R)-6-fluoro-2,2-dimethyl-5-(3-methyl-4-propoxyphenyl)-2,3-dihydro-1H-inden-1-yl)carbamate], the IC50 turned out to be 0.61 nM in assay [1] and 2.3 nM in assay [2] (Homo sapiens, Jurkat, 72 h).

With `CC1(C)Cc2cc(-c3ccc(OCC(F)(F)F)cc3Cl)c(F)cc2[C@@H]1NC(=O)O[C@@H]1CN2CCC1CC2` [Example 114, (S)-quinuclidin-3-yl((R)-5-(2-chloro-4-(2,2,2-trifluoroethoxy)phenyl)-6-fluoro-2,2-dimethyl-2,3-dihydro-1H-inden-1-yl)carbamate], the IC50 in assay [1] was found to be 0.2 nM; in assay [2] (Homo sapiens, Jurkat, 72 h), 1.7 nM.

Take `CC(C)Cc1ccc(-c2ccc3c(c2)CCC(C)(C)[C@H]3NC(=O)O[C@@H]2CN3CCC2CC3)cc1` [Example 160, (S)-quinuclidin-3-yl((R)-6-(4-isobutylphenyl)-2,2-dimethyl-1,2,3,4-tetrahydronaphthalen-1-yl)carbamate]: the IC50 was 5.05 nM in assay [1] and 3 nM in assay [2] (Homo sapiens, Jurkat, 72 h).

`CCOc1cc2c(cc1-c1ccc(C(C)C)cc1)CC(C)(C)[C@H]2NC(=O)O[C@@H]1CN2CCC1CC2` [Example 129, (S)-quinuclidin-3-yl((R)-6-ethoxy-5-(4-isopropylphenyl)-2,2-dimethyl-2,3-dihydro-1H-inden-1-yl)carbamate]: the IC50 stood at 2.31 nM in assay [1] and 8.11 nM in assay [2] (Homo sapiens, Jurkat, 72 h).

With `CCc1cccc(-c2cc3c(cc2F)[C@H](NC(=O)O[C@@H]2CN4CCC2CC4)C(C)(C)CC3)c1` [Example 187, (S)-quinuclidin-3-yl((R)-6-(3-ethylphenyl)-7-fluoro-2,2-dimethyl-1,2,3,4-tetrahydronaphthalen-1-yl)carbamate], the 50% inhibitory concentration (IC50) in assay [1] was 0.51 nM; in assay [2] (Homo sapiens, Jurkat, 72 h), 1.3 nM.

As to `COc1cccc(-c2ccc3c(c2)CCC(C)(C)[C@H]3NC(=O)O[C@@H]2CN3CCC2CC3)c1` [Example 153, (S)-quinuclidin-3-yl((R)-6-(3-methoxyphenyl)-2,2-dimethyl-1,2,3,4-tetrahydronaphthalen-1-yl)carbamate], the IC50 in assay [1] was 0.32 nM; in assay [2] (Homo sapiens, Jurkat, 72 h), 2.1 nM.

Regarding `CCCCOc1ccc(-c2cc3c(cc2F)[C@H](NC(=O)O[C@@H]2CN4CCC2CC4)C(C)(C)CC3)cc1` [Example 178, (S)-quinuclidin-3-yl((R)-6-(4-butoxyphenyl)-7-fluoro-2,2-dimethyl-1,2,3,4-tetrahydronaphthalen-1-yl)carbamate], the IC50 in assay [1] came out at 0.22 nM; in assay [2] (Homo sapiens, Jurkat, 72 h), 0.4 nM.

For `CC(C)(C)Oc1ccc(-c2cc3c(cc2F)[C@H](NC(=O)O[C@@H]2CN4CCC2CC4)C(C)(C)C3)c(Cl)c1` [Example 102, (S)-quinuclidin-3-yl((R)-5-(4-(tert-butoxy)-2-chlorophenyl)-6-fluoro-2,2-dimethyl-2,3-dihydro-1H-inden-1-yl)carbamate], the IC50 in assay [1] stood at 0.19 nM; in assay [2] (Homo sapiens, Jurkat, 72 h) it was 1.6 nM.

As for `CCCCc1ccc(-c2ccc3c(c2)CCC(C)(C)[C@H]3NC(=O)O[C@@H]2CN3CCC2CC3)cc1` [Example 142, (S)-quinuclidin-3-yl((R)-6-(4-butylphenyl)-2,2-dimethyl-1,2,3,4-tetrahydronaphthalen-1-yl) carbamate], the IC50 amounted to 0.23 nM in assay [1] (setting [3]) and 1.4 nM in assay [2] (read-out: IC50).

Regarding `CC(C)Oc1ccc(-c2ccc3c(c2)CCC(C)(C)[C@H]3NC(=O)O[C@@H]2CN3CCC2CC3)cc1` [Example 167, (S)-quinuclidin-3-yl((R)-6-(4-isopropoxyphenyl)-2,2-dimethyl-1,2,3,4-tetrahydronaphthalen-1-yl)carbamate], the half-inhibitory concentration (IC50) in assay [1] was determined as 0.37 nM; in assay [2] (Homo sapiens, Jurkat, 72 h), 3.16 nM.

Take `CC(C)Oc1c(Cl)cc(-c2cc3c(cc2F)[C@H](NC(=O)O[C@@H]2CN4CCC2CC4)C(C)(C)C3)cc1Cl` [Example 100, (S)-quinuclidin-3-yl((R)-5-(3,5-dichloro-4-isopropoxyphenyl)-6-fluoro-2,2-dimethyl-2,3-dihydro-1H-inden-1-yl)carbamate]: the half-inhibitory concentration (IC50) stood at 4.58 nM in assay [1] and 16.2 nM in assay [2] (Homo sapiens, Jurkat, 72 h).

`CC(C)COc1cc(Cl)cc(-c2cc3c(cc2F)[C@H](NC(=O)O[C@@H]2CN4CCC2CC4)C(C)(C)C3)c1` [Example 112, (S)-quinuclidin-3-yl((R)-5-(3-chloro-5-isobutoxyphenyl)-6-fluoro-2,2-dimethyl-2,3-dihydro-1H-inden-1-yl)carbamate]: the half-inhibitory concentration (IC50) in assay [1] stood at 1.03 nM; in assay [2] (Homo sapiens, Jurkat, 72 h), 10.6 nM.

In the case of `CCOc1ccc(-c2ccc3c(c2)CC(C)(C)[C@H]3NC(=O)O[C@@H]2CN3CCC2CC3)cc1C` [Example 46, (S)-quinuclidin-3-yl((R)-5-(4-ethoxy-3-methylphenyl)-2,2-dimethyl-2,3-dihydro-1H-inden-1-yl)carbamate], the IC50 in assay [1] came to 2.19 nM; in assay [2] (Homo sapiens, Jurkat, 72 h), 11.6 nM.

For the compound `CCc1ccc(-c2cc3c(cc2F)[C@H](NC(=O)O[C@@H]2CN4CCC2CC4)C(C)(C)C3)cc1F` [Example 93, (S)-quinuclidin-3-yl((R)-5-(4-ethyl-3-fluorophenyl)-6-fluoro-2,2-dimethyl-2,3-dihydro-1H-inden-1-yl)carbamate], the IC50 is 0.37 nM in assay [1] and 5.6 nM in assay [2] (Homo sapiens, Jurkat, 72 h).

`CCOc1cc2c(cc1-c1ccc(OCC(C)C)cc1)CC(C)(C)[C@H]2NC(=O)O[C@@H]1CN2CCC1CC2` [Example 136, (S)-quinuclidin-3-yl((R)-6-ethoxy-5-(4-isobutoxyphenyl)-2,2-dimethyl-2,3-dihydro-1H-inden-1-yl)carbamate]: the IC50 in assay [1] was 0.41 nM; in assay [2] (Homo sapiens, Jurkat, 72 h), 0.87 nM.

As to `COc1ccc(-c2cc3c(cc2F)[C@H](NC(=O)O[C@@H]2CN4CCC2CC4)C(C)(C)C3)cc1Cl` [Example 85, (S)-quinuclidin-3-yl((R)-5-(3-chloro-4-methoxyphenyl)-6-fluoro-2,2-dimethyl-2,3-dihydro-1H-inden-1-yl)carbamate], the IC50 in assay [1] came out at 0.818 nM; in assay [2] (Homo sapiens, Jurkat, 72 h), 66.7 nM.

Take `COc1cccc(-c2cc3c(cc2F)[C@H](NC(=O)O[C@@H]2CN4CCC2CC4)C(C)(C)CC3)c1` [Example 184, (S)-quinuclidin-3-yl((R)-7-fluoro-6-(3-methoxyphenyl)-2,2-dimethyl-1,2,3,4-tetrahydronaphthalen-1-yl)carbamate]: the IC50 is 0.3 nM in assay [1] and 2.29 nM in assay [2] (Homo sapiens, Jurkat, 72 h).

In the case of “(S)-quinuclidin-3-yl((R)-7-fluoro-6-(4-methoxyphenyl)-2,2-dimethyl-1,2,3,4-tetrahydronaphthalen-1-yl) carbamate [Example 175]”, the figures for the IC50 in assay [1] (setting [3]) and in assay [2] (read-out: IC50) were 0.28 nM and 3.8 nM, respectively.

In the case of `CC(C)COc1cc(F)cc(-c2cc3c(cc2F)[C@H](NC(=O)O[C@@H]2CN4CCC2CC4)C(C)(C)C3)c1` [Example 109, (S)-quinuclidin-3-yl((R)-6-fluoro-5-(3-fluoro-5-isobutoxyphenyl)-2,2-dimethyl-2,3-dihydro-1H-inden-1-yl)carbamate], the 50% inhibitory concentration (IC50) was found to be 0.69 nM in assay [1] and 11.5 nM in assay [2] (Homo sapiens, Jurkat, 72 h).

Consider `COc1cc(-c2cc3c(cc2F)[C@H](NC(=O)O[C@@H]2CN4CCC2CC4)C(C)(C)C3)ccc1OC(C)C` [Example 95, (S)-quinuclidin-3-yl((R)-6-fluoro-5-(4-isopropoxy-3-methoxyphenyl)-2,2-dimethyl-2,3-dihydro-1H-inden-1-yl)carbamate], for which the IC50 in assay [1] turned out to be 1.14 nM; in assay [2] (Homo sapiens, Jurkat, 72 h), 18.2 nM.

`CC1(C)Cc2cc(-c3ccc(OCC4CC4)c(Cl)c3)c(F)cc2[C@@H]1NC(=O)O[C@@H]1CN2CCC1CC2` [Example 99, (S)-quinuclidin-3-yl((R)-5-(3-chloro-4-(cyclopropylmethoxy)phenyl)-6-fluoro-2,2-dimethyl-2,3-dihydro-1H-inden-1-yl)carbamate]: the IC50 was found to be 0.67 nM in assay [1] and 8.84 nM in assay [2] (Homo sapiens, Jurkat, 72 h).

In the case of `CCCOc1cccc(-c2cc3c(cc2F)[C@H](NC(=O)O[C@@H]2CN4CCC2CC4)C(C)(C)CC3)c1` [Example 192, (S)-quinuclidin-3-yl((R)-7-fluoro-2,2-dimethyl-6-(3-propoxyphenyl)-1,2,3,4-tetrahydronaphthalen-1-yl) carbamate], the IC50 in assay [1] (setting [3]) is 0.53 nM; in assay [2] (read-out: IC50) it was 2.9 nM.

As to `COc1c(C)cc(-c2ccc3c(c2)CCC(C)(C)[C@H]3NC(=O)O[C@@H]2CN3CCC2CC3)cc1C` [Example 147, (S)-quinuclidin-3-yl((R)-6-(4-methoxy-3,5-dimethylphenyl)-2,2-dimethyl-1,2,3,4-tetrahydronaphthalen-1-yl) carbamate], the half-inhibitory concentration (IC50) turned out to be 1.18 nM in assay [1] (setting [3]) and 9.4 nM in assay [2] (read-out: IC50).

As for `Cc1cc2c(cc1-c1ccc(OC(C)C)cc1)CC(C)(C)[C@H]2NC(=O)O[C@@H]1CN2CCC1CC2` [Example 122, (S)-quinuclidin-3-yl((R)-5-(4-isopropoxyphenyl)-2,2,6-trimethyl-2,3-dihydro-1H-inden-1-yl)carbamate], the concentration for half-maximal inhibition (IC50) in assay [1] was 0.34 nM; in assay [2] (Homo sapiens, Jurkat, 72 h), 3.66 nM.

For `CC(C)COc1cc(F)cc(-c2ccc3c(c2)CC(C)(C)[C@H]3NC(=O)O[C@@H]2CN3CCC2CC3)c1` [Example 50, (S)-quinuclidin-3-yl((R)-5-(3-fluoro-5-isobutoxyphenyl)-2,2-dimethyl-2,3-dihydro-1H-inden-1-yl)carbamate], the IC50 in assay [1] was 0.44 nM; in assay [2] (Homo sapiens, Jurkat, 72 h), 2.2 nM.

On to `CC(C)Oc1cc(Cl)cc(-c2cc3c(cc2F)[C@H](NC(=O)O[C@@H]2CN4CCC2CC4)C(C)(C)C3)c1` [Example 113, (S)-quinuclidin-3-yl((R)-5-(3-chloro-5-isopropoxyphenyl)-6-fluoro-2,2-dimethyl-2,3-dihydro-1H-inden-1-yl)carbamate], for which the IC50 is 0.62 nM in assay [1] and 11.5 nM in assay [2] (Homo sapiens, Jurkat, 72 h).
